Data as given in patent publication US10485235B2, “Aryloxypyrimidinyl ethers as herbicides” (FMC Corporation, priority 2015, dated 2019).

How the values were obtained:
Type in all cases: in vivo
kochia (Kochia scoparia) [1] = assay: Test A postemergence, kochia
Outline: (§1)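 Scores (0 no effect to 100 complete control) come from visual comparison of treated and untreated plants kept about 10 days in a greenhouse. Growth medium was a loam/sand blend; preemergence treatment was a directed soil spray, postemergence treatment went onto plants at the 1–2 leaf stage.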

[2] = tested on: sedge, umbrella (small-flower umbrella sedge, Cyperus difformis); assay: Test B flooded paddy test, umbrella sedge; details: 250 g ai/ha, Flood; visual rating after 13 to 15 days; scale 0 to 100, 0 is no effect, 100 is complete control
Outline: (§2)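 Visual injury scored 0 (no effect) to 100 (complete control) relative to controls 13-15 days after treatment in greenhouse. Treatment: test compound added into paddy water of pots flooded 3 cm over soil, holding 2-leaf-stage plants; water level kept constant.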

[3] = tested on: foxtail, giant (giant foxtail, Setaria faberii); assay: Test A preemergence, giant foxtail; details: Preemergence, 0 to 100 scale (0 no effect, 100 complete control)
Outline: as §1

[4] = tested on: foxtail, giant (giant foxtail, Setaria faberii); assay: Test A postemergence, giant foxtail
Outline: as §1

[5] = tested on: ducksalad (Heteranthera limosa); assay: Test B flooded paddy test, ducksalad; details: 250 g ai/ha, Flood; visual rating after 13 to 15 days; scale 0 to 100, 0 is no effect, 100 is complete control
Outline: as §2

[6] = tested on: ragweed (common ragweed, Ambrosia elatior); assay: Test A postemergence, ragweed
Outline: as §1

[7] = tested on: ryegrass, Italian (Italian ryegrass, Lolium multiflorum); assay: Test A preemergence, Italian ryegrass; details: Preemergence, 0 to 100 scale (0 no effect, 100 complete control)
Outline: as §1

[8] = tested on: galium (catchweed bedstraw, Galium aparine); assay: Test A postemergence, galium
Outline: as §1

[9] = tested on: pigweed (Amaranthus retroflexus); assay: Test A postemergence, pigweed
Outline: as §1

[10] = tested on: barnyardgrass (Echinochloa crus-galli); assay: Test B flooded paddy test, barnyardgrass; details: 250 g ai/ha, Flood; visual rating after 13 to 15 days; scale 0 to 100, 0 is no effect, 100 is complete control
Outline: as §2

[11] = tested on: barnyardgrass (Echinochloa crus-galli); assay: Test A preemergence, barnyardgrass; details: Preemergence, 0 to 100 scale (0 no effect, 100 complete control)
Outline: as §1

[12] = tested on: ryegrass, Italian (Italian ryegrass, Lolium multiflorum); assay: Test A postemergence, Italian ryegrass
Outline: as §1

corn (Zea mays) = assay: Test A postemergence, corn
Outline: as §1

[13] = tested on: barnyardgrass (Echinochloa crus-galli); assay: Test A postemergence, barnyardgrass
Outline: as §1

rice (Oryza sativa) = assay: Test B flooded paddy test, rice; details: 250 g ai/ha, Flood; visual rating after 13 to 15 days; scale 0 to 100, 0 is no effect, 100 is complete control
Outline: as §2

[14] = tested on: wheat (Triticum aestivum); assay: Test A postemergence, wheat
Outline: as §1

[15] = tested on: pigweed (Amaranthus retroflexus); assay: Test A preemergence, pigweed; details: Preemergence, 0 to 100 scale (0 no effect, 100 complete control)
Outline: as §1

[16] = tested on: ragweed (common ragweed, Ambrosia elatior); assay: Test A preemergence, ragweed; details: Preemergence, 0 to 100 scale (0 no effect, 100 complete control)
Outline: as §1

kochia (Kochia scoparia) [17] = assay: Test A preemergence, kochia; details: Preemergence, 0 to 100 scale (0 no effect, 100 complete control)
Outline: as §1

[18] = tested on: blackgrass (Alopecurus myosuroides); assay: Test A postemergence, blackgrass
Outline: as §1

[19] = 125 g ai/ha, postemergence, 0 to 100 scale, 0 is no effect, 100 is complete control, approximately 10 days
[20] = Postemergence, 31 g ai/ha, 0 to 100 scale (0 no effect, 100 complete control)
[21] = 500 g ai/ha, postemergence, 0 to 100 scale, 0 is no effect, 100 is complete control, approximately 10 days

Row | Structure (SMILES) | Plant response rating, Kochia (kochia (Kochia scoparia) [1]; [19]) | Plant response rating, Sedge, Umbrella [2] | Plant response rating, Foxtail, Giant ([3]; 125 g ai/ha) | Plant response rating, Foxtail, Giant [4, 19] | Plant response rating, Ducksalad [5] | Plant response rating, Ragweed [6, 19] | Plant response rating, Ryegrass, Italian ([7]; 125 g ai/ha) | Plant response rating, Galium [8, 19] | Plant response rating, Pigweed [9, 19] | Plant response rating, Barnyardgrass [10] | Plant response rating, Barnyardgrass ([11]; 125 g ai/ha) | Plant response rating, Ryegrass, Italian [12, 19] | Plant response rating, Corn (corn (Zea mays); [19]) | Plant response rating, Barnyardgrass [13, 19] | Plant response rating, Rice (rice (Oryza sativa)) | Plant response rating, Wheat [14, 19] | Plant response rating, Pigweed ([15]; 125 g ai/ha) | Plant response rating, Ragweed ([16]; 125 g ai/ha) | Plant response rating, Kochia (kochia (Kochia scoparia) [17]; 125 g ai/ha) | Plant response rating, Blackgrass [18, 19] | also measured
1 | N#Cc1cccc(Oc2ncc(Cl)cn2)c1OCCCC(F)(F)F [Compound 72] | 70 | 90 | 90 | 40 | 100 | 10 | 20 | 60 | 60 | 25 | 80 | 10 | 20 | 30 | 0 | 0 | 60 | 0 | 10 | 20 | Plant response rating, Kochia (kochia (Kochia scoparia) [1]; [20]): 30; Plant response rating, Foxtail, Giant ([3]; 31 g ai/ha): 10; Plant response rating, Foxtail, Giant [4, 20]: 10; Plant response rating, Ragweed [6, 20]: 0; Plant response rating, Ryegrass, Italian ([7]; 31 g ai/ha): 0; Plant response rating, Galium [8, 20]: 20; Plant response rating, Pigweed [9, 20]: 30; Plant response rating, Barnyardgrass ([11]; 31 g ai/ha): 10; Plant response rating, Ryegrass, Italian [12, 20]: 0; Plant response rating, Corn (corn (Zea mays); [20]): 10; Plant response rating, Barnyardgrass [13, 20]: 10; Plant response rating, Wheat [14, 20]: 0; Plant response rating, Pigweed ([15]; 31 g ai/ha): 0; Plant response rating, Ragweed ([16]; 31 g ai/ha): 0; Plant response rating, Kochia (kochia (Kochia scoparia) [17]; 31 g ai/ha): 0; Plant response rating, Blackgrass [18, 20]: 0
2 | N#Cc1cccc(Oc2ncc(Cl)cn2)c1OCc1ccccc1Cl [Compound 2] | 30 | 0 | 10 | 0 | 0 | 0 | 0 | 20 | 0 | 0 | 0 | 0 | 0 | 0 | 0 | 0 | 0 | 0 | 0 | 0 | Plant response rating, Kochia (kochia (Kochia scoparia) [1]; [21]): 40; Plant response rating, Foxtail, Giant ([3]; 500 g ai/ha): 70; Plant response rating, Foxtail, Giant [4, 21]: 10; Plant response rating, Ragweed [6, 21]: 10; Plant response rating, Ryegrass, Italian ([7]; 500 g ai/ha): 0; Plant response rating, Galium [8, 21]: 50; Plant response rating, Pigweed [9, 21]: 10; Plant response rating, Barnyardgrass ([11]; 500 g ai/ha): 10; Plant response rating, Ryegrass, Italian [12, 21]: 0; Plant response rating, Corn (corn (Zea mays); [21]): 30; Plant response rating, Barnyardgrass [13, 21]: 10; Plant response rating, Wheat [14, 21]: 0; Plant response rating, Pigweed ([15]; 500 g ai/ha): 20; Plant response rating, Ragweed ([16]; 500 g ai/ha): 0; Plant response rating, Kochia (kochia (Kochia scoparia) [17]; 500 g ai/ha): 0; Plant response rating, Blackgrass [18, 21]: 0
